In ChEMBL document CHEMBL1201862, “PubChem BioAssay data set” (2004):
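Tested at 5 concentrations; 48 h exposure; 96-well plates; endpoints linearly interpolated, else capped at highest concentration. The concentration for 50% growth inhibition is given as GI50.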 Calls of active or inactive are those of the source. Rule as the data show it: active = GI50 up to about 1.1 µM and inactive = higher.

Key:
Test in all cases: NCI tumour cell line growth inhibition, 48 h
786-0 = system: 786-0
A549 = system: A549
ACHN = system: ACHN
BT-549 = system: BT-549
CAKI-1 = system: CAKI-1
CCRF-CEM = system: CCRF-CEM
COLO 205 = system: COLO 205
DU-145 = system: DU-145
EKVX = system: EKVX
HCC 2998 = system: HCC 2998
HCT-116 = system: HCT-116
HCT-15 = system: HCT-15
HL-60 = system: HL-60
HOP-62 = system: HOP-62
HOP-92 = system: HOP-92
HT-29 = system: HT-29
Hs-578T = system: Hs-578T
IGROV-1 = system: IGROV-1
K562 = system: K562
KM12 = system: KM12
LOX IMVI = system: LOX IMVI
MCF7 = system: MCF7
MDA-MB-231 = system: MDA-MB-231
MDA-MB-435 = system: MDA-MB-435
MDA-N = system: MDA-N
MOLT-4 = system: MOLT-4
Malme-3M = system: Malme-3M
NCI-H226 = system: NCI-H226
NCI-H460 = system: NCI-H460
NCI-H522 = system: NCI-H522
NCI/ADR-RES = system: NCI/ADR-RES
OVCAR-4 = system: OVCAR-4
OVCAR-8 = system: OVCAR-8
PC-3 = system: PC-3
RPMI-8226 = system: RPMI-8226
RXF 393 = system: RXF 393
SF-268 = system: SF-268
SF-539 = system: SF-539
SK-MEL-28 = system: SK-MEL-28
SK-MEL-2 = system: SK-MEL-2
SK-MEL-5 = system: SK-MEL-5
SN12C = system: SN12C
SNB-19 = system: SNB-19
SNB-75 = system: SNB-75
SR = system: SR
SW-620 = system: SW-620
T47D = system: T47D
TK-10 = system: TK-10
U-251 = system: U-251
UACC-257 = system: UACC-257
UACC-62 = system: UACC-62
UO-31 = system: UO-31
M14 = system: M14
NCI-H23 = system: NCI-H23
OVCAR-3 = system: OVCAR-3
OVCAR-5 = system: OVCAR-5
SF-295 = system: SF-295
SK-OV-3 = system: SK-OV-3

For `CCOC(=O)C(NC(=O)c1cccc(Cl)c1)(Nc1cccc(C)c1)C(F)(F)F` (stereo not drawn), the GI50 (786-0) was 23.3 µM (inactive), the GI50 (A549) was 32 µM (inactive) and the GI50 (ACHN) was 15.9 µM (inactive). The GI50 (BT-549) was 13 µM (inactive), the GI50 (CAKI-1) was 20.7 µM (inactive) and the GI50 (CCRF-CEM) was 11.6 µM (inactive). For the same compound, the GI50 (COLO 205) was 20.1 µM (inactive), the GI50 (DU-145) was 29.3 µM (inactive) and the GI50 (EKVX) was 18.7 µM (inactive). For the same compound, the GI50 (HCC 2998) was 16.7 µM (inactive), the GI50 (HCT-116) was 19.1 µM (inactive) and the GI50 (HCT-15) was 16.7 µM. The GI50 (HL-60) was 38.5 µM (inactive), the GI50 (HOP-62) was 17.7 µM (inactive) and the GI50 (HOP-92) was 15 µM (inactive). For the same compound, the GI50 (HT-29) was 13.3 µM (inactive), the GI50 (Hs-578T) was 14.8 µM (inactive) and the GI50 (IGROV-1) was 12.8 µM (inactive). The GI50 (K562) was 23.6 µM (inactive), the GI50 (KM12) was 13.6 µM (inactive) and the GI50 (LOX IMVI) was 15.3 µM (inactive). For the same compound, the GI50 (MCF7) was 19 µM (inactive), the GI50 (MDA-MB-231) was 19.4 µM (inactive) and the GI50 (MDA-MB-435) was 19.6 µM (inactive). For the same compound, the GI50 (MDA-N) was 17.5 µM (inactive), the GI50 (MOLT-4) was 20.4 µM (inactive) and the GI50 (Malme-3M) was 16.6 µM (inactive). For the same compound, the GI50 (NCI-H226) was 14 µM (inactive), the GI50 (NCI-H460) was 20.8 µM (inactive) and the GI50 (NCI-H522) was 5.26 µM (inactive). For the same compound, the GI50 (NCI/ADR-RES) was 15.9 µM (inactive), the GI50 (OVCAR-4) was 21.8 µM (inactive) and the GI50 (OVCAR-8) was 21.2 µM (inactive). For the same compound, the GI50 (PC-3) was 16.5 µM (inactive), the GI50 (RPMI-8226) was 18.3 µM (inactive) and the GI50 (RXF 393) was 13 µM (inactive). The GI50 (SF-268) was 15.3 µM (inactive), the GI50 (SF-539) was 17.9 µM (inactive) and the GI50 (SK-MEL-28) was 17.4 µM (inactive). For the same compound, the GI50 (SK-MEL-2) was 16.3 µM (inactive), the GI50 (SK-MEL-5) was 16.1 µM (inactive) and the GI50 (SN12C) was 21.2 µM (inactive). The GI50 (SNB-19) was 35.9 µM (inactive), the GI50 (SNB-75) was 12.4 µM (inactive) and the GI50 (SR) was 28.7 µM (inactive). The GI50 (SW-620) was 16.4 µM (inactive), the GI50 (T47D) was 19 µM (inactive) and the GI50 (TK-10) was 29.8 µM (inactive). The GI50 (U-251) was 23.8 µM (inactive), the GI50 (UACC-257) was 25.7 µM (inactive) and the GI50 (UACC-62) was 14.5 µM (inactive). The GI50 (UO-31) was 15.1 µM (inactive).
In the case of `O=C1C(=Cc2cccc(Cl)c2)N=C(c2ccccc2)N1n1c(-c2ccccc2)nc2ccccc2c1=O`, the GI50 (786-0) is reported as 47.4 µM (inactive), the GI50 (A549) is reported as 32.9 µM (inactive) and the GI50 (ACHN) is reported as 37.7 µM (inactive). The GI50 (BT-549) was 23.7 µM (inactive), the GI50 (CAKI-1) was 45.1 µM (inactive) and the GI50 (CCRF-CEM) was 22.9 µM (inactive). The GI50 (COLO 205) was 40 µM (inactive), the GI50 (DU-145) was 52.2 µM (inactive) and the GI50 (EKVX) was 28.4 µM (inactive). For the same compound, the GI50 (HCC 2998) was 30.7 µM (inactive), the GI50 (HCT-116) was 10.8 µM (inactive) and the GI50 (HCT-15) was 49.3 µM. For the same compound, the GI50 (HL-60) was 24.2 µM (inactive), the GI50 (HOP-62) was 34.8 µM (inactive) and the GI50 (HOP-92) was 27 µM (inactive). The GI50 (HT-29) was 37.2 µM (inactive), the GI50 (Hs-578T) was 41.4 µM (inactive) and the GI50 (IGROV-1) was 35.2 µM (inactive). For the same compound, the GI50 (K562) was 30.3 µM (inactive), the GI50 (KM12) was 9.55 µM (inactive) and the GI50 (LOX IMVI) was 31.3 µM (inactive). For the same compound, the GI50 (M14) was 22.7 µM (inactive), the GI50 (MCF7) was 25.9 µM (inactive) and the GI50 (MDA-MB-231) was 50 µM (inactive). The GI50 (MDA-MB-435) was 36.8 µM (inactive), the GI50 (MDA-N) was 33.8 µM (inactive) and the GI50 (MOLT-4) was 23.4 µM (inactive). For the same compound, the GI50 (Malme-3M) was 50.8 µM (inactive), the GI50 (NCI-H226) was 63.4 µM (inactive) and the GI50 (NCI-H23) was 20 µM (inactive). The GI50 (NCI-H460) was 6 µM (inactive), the GI50 (NCI-H522) was 16.4 µM (inactive) and the GI50 (NCI/ADR-RES) was 30.9 µM (inactive). The GI50 (OVCAR-3) was 28 µM (inactive), the GI50 (OVCAR-4) was 42.3 µM (inactive) and the GI50 (OVCAR-5) was 67.6 µM (inactive). The GI50 (OVCAR-8) was 28.7 µM (inactive), the GI50 (PC-3) was 28.8 µM (inactive) and the GI50 (RPMI-8226) was 40.8 µM (inactive). The GI50 (RXF 393) was 33.5 µM (inactive), the GI50 (SF-268) was 32.4 µM (inactive) and the GI50 (SF-295) was 39 µM (inactive). The GI50 (SF-539) was 27.9 µM (inactive), the GI50 (SK-MEL-28) was 50.2 µM (inactive) and the GI50 (SK-MEL-2) was 26.2 µM (inactive). The GI50 (SK-MEL-5) was 32.4 µM (inactive), the GI50 (SK-OV-3) was 47.2 µM (inactive) and the GI50 (SN12C) was 45.2 µM (inactive). The GI50 (SNB-19) was 38.1 µM (inactive), the GI50 (SNB-75) was 29.9 µM (inactive) and the GI50 (SR) was 37 µM (inactive). The GI50 (SW-620) was 45.3 µM (inactive), the GI50 (T47D) was 29.7 µM (inactive) and the GI50 (TK-10) was 95.5 µM (inactive). The GI50 (U-251) was 28 µM (inactive), the GI50 (UACC-257) was 32.1 µM (inactive) and the GI50 (UACC-62) was 23.9 µM (inactive). The GI50 (UO-31) was 34.4 µM (inactive).
For `O=C(c1ccccc1)N1C(=S)N(c2ccc([N+](=O)[O-])cc2)C(=N/c2ccccc2)/C1=N\c1ccccc1`, the GI50 (786-0) was > 100 µM (inactive), the GI50 (A549) was 41.9 µM (inactive) and the GI50 (ACHN) was 52 µM (inactive). The GI50 (BT-549) was > 100 µM (inactive), the GI50 (CAKI-1) was > 100 µM (inactive) and the GI50 (COLO 205) was > 100 µM (inactive). For the same compound, the GI50 (DU-145) was > 100 µM (inactive), the GI50 (EKVX) was > 100 µM (inactive) and the GI50 (HCC 2998) was > 100 µM (inactive). For the same compound, the GI50 (HCT-15) was 65.2 µM, the GI50 (HOP-62) was > 100 µM (inactive) and the GI50 (HOP-92) was > 100 µM (inactive). For the same compound, the GI50 (HT-29) was > 100 µM (inactive), the GI50 (Hs-578T) was > 100 µM (inactive) and the GI50 (IGROV-1) was > 100 µM (inactive). The GI50 (K562) was 30.1 µM (inactive), the GI50 (KM12) was > 100 µM (inactive) and the GI50 (M14) was > 100 µM (inactive). For the same compound, the GI50 (MCF7) was > 100 µM (inactive), the GI50 (MDA-MB-231) was 39.8 µM (inactive) and the GI50 (MDA-MB-435) was > 100 µM (inactive). The GI50 (MDA-N) was 52.7 µM (inactive), the GI50 (MOLT-4) was 19.5 µM (inactive) and the GI50 (Malme-3M) was > 100 µM (inactive). For the same compound, the GI50 (NCI-H226) was > 100 µM (inactive), the GI50 (NCI-H23) was > 100 µM (inactive) and the GI50 (NCI-H460) was 72.1 µM (inactive). For the same compound, the GI50 (NCI-H522) was 9.06 µM (inactive), the GI50 (NCI/ADR-RES) was > 100 µM (inactive) and the GI50 (OVCAR-3) was > 100 µM (inactive). The GI50 (OVCAR-5) was > 100 µM (inactive), the GI50 (OVCAR-8) was 65.5 µM (inactive) and the GI50 (PC-3) was 40.6 µM (inactive). The GI50 (RPMI-8226) was > 100 µM (inactive), the GI50 (RXF 393) was > 100 µM (inactive) and the GI50 (SF-268) was > 100 µM (inactive). The GI50 (SF-295) was > 100 µM (inactive), the GI50 (SF-539) was > 100 µM (inactive) and the GI50 (SK-MEL-28) was > 100 µM (inactive). For the same compound, the GI50 (SK-MEL-2) was > 100 µM (inactive), the GI50 (SK-MEL-5) was > 100 µM (inactive) and the GI50 (SK-OV-3) was > 100 µM (inactive). The GI50 (SN12C) was > 100 µM (inactive), the GI50 (SNB-19) was > 100 µM (inactive) and the GI50 (SNB-75) was 24.4 µM (inactive). The GI50 (SR) was 20.6 µM (inactive), the GI50 (SW-620) was > 100 µM (inactive) and the GI50 (T47D) was > 100 µM (inactive). For the same compound, the GI50 (TK-10) was > 100 µM (inactive), the GI50 (U-251) was 44.8 µM (inactive) and the GI50 (UACC-257) was > 100 µM (inactive). The GI50 (UACC-62) was 97.5 µM (inactive) and the GI50 (UO-31) was > 100 µM (inactive).
